According to ChEMBL document CHEMBL5550134, “An insight into the pharmacology of cysteine/methionine containing peptide drugs” (Eur J Med Chem, 2024):
Numbered stars: 1 amine (or outer) side, 2 acyl side, 3 side chain; on linkers, the order of the positions; unused ones are H or OH. Bridge positions count the residues as written; N and C are the ends. Square brackets hold non-standard residues; d marks the D form. Peptide text beside a SMILES is read from it. * marks the point of attachment. 2Nal = N[C@@H](Cc1ccc2ccccc2c1)C(=O)O; Benzoyl(4-F) = O=C(c1ccc(F)cc1)*; Cit = NC(=O)NCCC[C@H](N)C(=O)O; X1 = O=C(CCC[*:2])[*:1]

How the values were obtained:
[1] = Half life in human; format: ADME
[2] = Terminal half life in human; format: ADME; details: read-out: beta t1/2 (converted)
[3] = Subcutaneous bioavailability in human; details: in vivo, sc
[4] = Plasma protein binding in human; format: ADME, cell-free; details: read-out: PPB (converted)
[5] = Oral bioavailability in human; format: ADME, organism-based; details: in vivo
[6] = Half life in human at 0.3 mg/kg, iv; format: ADME, organism-based; details: in vivo
[7] = Plasma protein binding in human at 0.2 ug/ml; format: ADME, cell-free; details: at 0.2 µg/mL, read-out: PPB
[8] = Half life in human plasma; format: ADME, cell-free
[9] = Terminal elimination half life in human; format: ADME
[10] = Half life in iv dosed human; format: ADME, organism-based; details: in vivo
[11] = Half life in human at 0.5 mg/kg, iv; format: ADME, organism-based; details: in vivo

With `CC[C@H](C)[C@H](NC(=O)[C@H](CO)NC(=O)[C@H](CC(N)=O)NC(=O)[C@H](CC(C)C)NC(=O)[C@H](Cc1ccc(O)cc1)NC(=O)[C@H](CCCCN)NC(=O)[C@H](CCCCN)NC(=O)[C@@H](NC(=O)[C@H](C)NC(=O)[C@H](CCSC)NC(=O)[C@H](CCC(N)=O)NC(=O)[C@H](CCCCN)NC(=O)[C@H](CCCN=C(N)N)NC(=O)[C@H](CC(C)C)NC(=O)[C@H](CCCN=C(N)N)NC(=O)[C@@H](NC(=O)[C@H](Cc1ccc(O)cc1)NC(=O)[C@H](CC(N)=O)NC(=O)[C@H](CC(=O)O)NC(=O)[C@@H](NC(=O)[C@H](Cc1ccccc1)NC(=O)[C@@H](NC(=O)[C@H](C)NC(=O)[C@H](CC(=O)O)NC(=O)[C@H](CO)NC(=O)[C@@H](N)Cc1c[nH]cn1)C(C)C)[C@@H](C)O)[C@@H](C)O)C(C)C)C(=O)N[C@@H](CC(C)C)C(=O)N[C@@H](CC(N)=O)C(N)=O` the half-life [1] was 0.0167 h.

Compound `CC[C@H](C)[C@H](NC(=O)[C@H](Cc1ccccc1)NC(=O)[C@H](CC(=O)O)NC(=O)[C@H](CCCNC(=N)N)NC(=O)[C@H](C)NC(=O)[C@H](C)NC(=O)[C@H](CC(C)C)NC(=O)[C@H](CC(N)=O)NC(=O)[C@H](CC(=O)O)NC(=O)[C@H](CC(C)C)NC(=O)[C@@H](NC(=O)[C@@H](NC(=O)[C@H](CC(N)=O)NC(=O)[C@H](CCSC)NC(=O)[C@H](CCC(=O)O)NC(=O)[C@H](CC(=O)O)NC(=O)[C@H](CO)NC(=O)[C@H](Cc1ccccc1)NC(=O)[C@H](CO)NC(=O)CNC(=O)[C@H](CC(=O)O)NC(=O)CNC(=O)[C@@H](N)Cc1c[nH]cn1)[C@@H](C)O)[C@@H](C)CC)C(=O)N[C@@H](CC(N)=O)C(=O)N[C@@H](Cc1c[nH]c2ccccc12)C(=O)N[C@@H](CC(C)C)C(=O)N[C@H](C(=O)N[C@@H](CCC(N)=O)C(=O)N[C@H](C(=O)N[C@@H](CCCCN)C(=O)N[C@H](C(=O)N[C@H](C(=O)N[C@@H](CC(=O)O)C(=O)O)[C@@H](C)O)[C@@H](C)CC)[C@@H](C)O)[C@@H](C)CC` [TEDUGLUTIDE] has a half-life [2] of 1.3 h and a subcutaneous bioavailability [3] of 88%.

`CC(=O)N[C@@H](CCCNC(=N)N)C(=O)N[C@H]1CSSC[C@@H](C(N)=O)NC(=O)[C@H](Cc2c[nH]c3ccccc23)NC(=O)[C@H](CCCNC(=N)N)NC(=O)[C@@H](Cc2ccccc2)NC(=O)[C@H](Cc2c[nH]cn2)NC(=O)[C@@H](C)NC1=O` [SETMELANOTIDE] gave a half-life [1] of 11 h and a fraction unbound [4] of 0.209.

In the case of TESAMORELIN, the t1/2 [1] is reported as 0.433 h and the F [5] is reported as under 4%.

NESIRITIDE showed a t1/2 [6] of 0.3 h.

With `CSCC[C@@H]1NC(=O)[C@H](CC(C)C)NC(=O)[C@H](CCCNC(=N)N)NC(=O)[C@H](CO)NC(=O)[C@@H]2CSSC[C@@H]3NC(=O)[C@H](CO)NC(=O)CNC(=O)[C@H]([C@@H](C)O)NC(=O)[C@H](CSSC[C@H](N)C(=O)N[C@@H](CCCCN)C(=O)NCC(=O)N[C@@H](CCCCN)C(=O)NCC(=O)N[C@@H](C)C(=O)N[C@@H](CCCCN)C(=O)N2)NC(=O)[C@H](CSSC[C@@H](C(N)=O)NC(=O)[C@H](CCCCN)NC(=O)CNC(=O)[C@H](CO)NC(=O)[C@H](CCCNC(=N)N)NC3=O)NC(=O)[C@H](CC(=O)O)NC(=O)[C@H](Cc2ccc(O)cc2)NC1=O` [ZICONOTIDE] the fraction unbound at 0.2 ug/ml [7] was 0.5.

Compound `CC[C@H](C)[C@@H]1NC(=O)[C@H](Cc2ccc(OC)cc2)NC(=O)CCCSC[C@@H](C(=O)N2CCC[C@H]2C(=O)N[C@@H](CC(C)C)C(=O)NCC(N)=O)NC(=O)[C@H](CC(N)=O)NC(=O)[C@H](CCC(N)=O)NC1=O` [CARBETOCIN] (Y(Me)IQNCPLG-NH2; linker N-5 via X1) has a half-life [8] of 0.667 h.

`CC[C@H](C)[C@H](NC(=O)[C@H](CCC(=O)O)NC(=O)[C@H](CO)NC(=O)[C@@H](NC(=O)[C@@H](N)CO)C(C)C)C(=O)N[C@@H](CCC(N)=O)C(=O)N[C@@H](CC(C)C)C(=O)N[C@@H](CCSC)C(=O)N[C@@H](Cc1cnc[nH]1)C(=O)N[C@@H](CC(N)=O)C(=O)N[C@@H](CC(C)C)C(=O)NCC(=O)N[C@@H](CCCCN)C(=O)N[C@@H](Cc1cnc[nH]1)C(=O)N[C@@H](CC(C)C)C(=O)N[C@@H](CC(N)=O)C(=O)N[C@@H](CO)C(=O)N[C@@H](CCSC)C(=O)N[C@@H](CCC(=O)O)C(=O)N[C@@H](CCCN=C(N)N)C(=O)N[C@H](C(=O)N[C@@H](CCC(=O)O)C(=O)N[C@@H](Cc1c[nH]c2ccccc12)C(=O)N[C@@H](CC(C)C)C(=O)N[C@@H](CCCN=C(N)N)C(=O)N[C@@H](CCCCN)C(=O)N[C@@H](CCCCN)C(=O)N[C@@H](CC(C)C)C(=O)N[C@@H](CCC(N)=O)C(=O)N[C@@H](CC(=O)O)C(=O)N[C@H](C(=O)N[C@@H](Cc1cnc[nH]1)C(=O)N[C@@H](CC(N)=O)C(=O)N[C@@H](Cc1ccccc1)C(=O)O)C(C)C)C(C)C` [TERIPARATIDE] gave a half-life [1] of 1 h and a subcutaneous bioavailability [3] of 95%.

For `NCCCC[C@H](NC(=O)[C@@H]1CCCN1C(=O)[C@@H]1CSSC[C@H](NC(=O)CNC(=O)CNC(=O)CN)C(=O)N[C@@H](Cc2ccc(O)cc2)C(=O)N[C@@H](Cc2ccccc2)C(=O)N[C@@H](CCC(N)=O)C(=O)N[C@@H](CC(N)=O)C(=O)N1)C(=O)NCC(N)=O` [TERLIPRESSIN], the half-life [2] was 0.9 h.

Work on `NC(N)=NCCC[C@@H](N)C(=O)N[C@@H](CCCN=C(N)N)C(=O)N1CCC[C@H]1C(=O)N1C[C@H](O)C[C@H]1C(=O)NCC(=O)N[C@@H](Cc1cccs1)C(=O)N[C@@H](CO)C(=O)N1Cc2ccccc2C[C@@H]1C(=O)N1[C@H](C(=O)N[C@@H](CCCN=C(N)N)C(=O)O)C[C@@H]2CCCC[C@@H]21` [ICATIBANT] yielded a half-life [1] of 1.4 h and a subcutaneous bioavailability [3] of 97%.

For LIXISENATIDE, the “beta t1/2” value [9] was 3 h.

VOSORITIDE showed a t1/2 [1] of 0.35 h.

Work on `N=C(N)NCCC[C@H](NC(=O)[C@@H]1CSSC[C@H](NC(=O)[C@H](Cc2ccc3ccccc3c2)NC(=O)[C@H](CCCNC(=N)N)NC(=O)[C@H](CCCNC(=N)N)NC(=O)c2ccc(F)cc2)C(=O)N[C@@H](Cc2ccc(O)cc2)C(=O)N[C@@H](CCCNC(N)=O)C(=O)N[C@@H](CCCCN)C(=O)N[C@@H](CCCCN)C(=O)N2CCC[C@H]2C(=O)N[C@@H](Cc2ccc(O)cc2)C(=O)N[C@@H](CCCNC(=N)N)C(=O)N[C@@H](CCCNC(N)=O)C(=O)N1)C(N)=O` ({Benzoyl(4-F)}-RR[2Nal]CY[Cit]KKPYR[Cit]CR-NH2; disulfide 4-13) yielded a half-life [1] of 2 h and a fraction unbound [4] of under 0.01.

For `CC(=O)N[C@H](CSSC[C@H](N)C(=O)O)C(=O)N[C@H](C)C(=O)N[C@H](CCCNC(=N)N)C(=O)N[C@H](CCCNC(=N)N)C(=O)N[C@H](CCCNC(=N)N)C(=O)N[C@H](C)C(=O)N[C@H](CCCNC(=N)N)C(N)=O` [ETELCALCETIDE], the half-life [10] was 72 h.

With `C/C=C1\NC(=O)[C@H]2CSSCC/C=C/[C@H](CC(=O)N[C@H](C(C)C)C(=O)N2)OC(=O)[C@H](C(C)C)NC1=O` [ROMIDEPSIN] the half-life [11] was 3 h.
